{
  "source": "patent US4693992A",
  "about": "“Bacitracin-metal-polyether antibiotic complexes” (International Minerals & Chemical Corp., priority 1985, dated 1987)",
  "key": {"Eimeria tenella [1]": {"test_system": "Eimeria tenella", "experiment": "Anticoccidial activity in chickens inoculated with Eimeria tenella (Example 12)", "type": "in vivo, chicken", "settings": "for Cecal Bleeding / Gain/Bird Days 0-3 / Gain/Bird Days 4-10: regrouped part of Table 2", "procedure": "(§1) This example describes experimental testing of complexes of this invention for anticoccidial activity. Anticoccidial activities of test compounds were determined by administering the compounds (in feed) to chickens inoculated with active oocysts of Eimeria tenella. The test compounds, which are listed in Table 1 below, included four bacitracin-metal-polyether antibiotic complexes prepared according to the procedures described above. In addition, sodium lysocellin, regular bacitracin, sodium monensin, sodium lasolocid, and unmedicated inoculated and noninoculated controls were included for comparative purposes.\n(§2) The test animals were Hubbard White Mountain male chicken (broiler strain) that were 5 days old at the beginning of the test. Each experimental compound was administered in a chick starter diet (Table 2) at a level of 80 g/ton and 120 g/ton. At 7 days of age, chicks were individually weighed, banded, and started on their respective treatments. Each treatment was replicated three times with five birds per replicate for a total of 15 birds per group. The test period was 10 days.\nSeventy-two hours after the initiation of medication, birds were reweighed and orally inoculated with approximately 100,000 Eimeria tenella oocysts suspended in a 1 cc dose of saline. The following criteria were then evaluated over the next seven days:\nA satisfactory challenge was obtained with Eimeria tenella."}, "[2]": {"experiment": "Weight gain and feed utilization efficiency in chicks, 11 days (Example 13)", "type": "in vivo, chicken", "set-up": "key to Average Weight: average weight in grams", "settings": "for Average Gain / Gain/Feed Ratio / Average Weight / Gain/Feed / Average Gain Index / Gain/Feed Ratio Index: .00275% in rye basal diet; for Average Gain / Gain/Feed Ratio: 11 days; for Average Gain Index / Gain/Feed Ratio Index: unmedicated = 100", "procedure": "(§3) This example describes experimetnal testing of complexes of the present invention as feed additives for improving weight gain or feed utilization efficiency in birds. Test animals were male meat-type chickens (Hubbard strain). Fluorescent room lights were on a 16 hours light/8 hours dark schedule. The chicks were allotted to the pens on the basis of weight classes, and chicks in the even numbered pens were wing banded. Group weights were obtained at the start and individual weights at the termination of the experiment. Chicks weighing between 55 and 65 grams were selected for the test. The test compounds were blended with a basal feed ration (shown in Table 2) at the indicated concentration. Birds fed […] and feed supplemented with zinc bacitracin (Baciferm® 50, International Minerals and Chemical Corp.) were used as controls. The test was continued for 11 days, after which individual weights, pen weight and feed consumption were recorded and analyzed."}, "Eimeria tenella [3]": {"test_system": "Eimeria tenella", "experiment": "Anticoccidial activity in chickens inoculated with Eimeria tenella oocysts (Example 11)", "type": "in vivo", "settings": "for Morbidity: birds affected/birds in group; for Mortality: 4th-7th day, birds dead/birds in group; for F/G Day 0-3 / F/G Day 4-10: feed per gain", "procedure": "as §1, §2\nSeventy-two hours after the initiation of medication, birds were reweighed and orally inoculated with approximately 100,000 Eimeria tenella oocysts suspended in a 1 cc dose of saline. The following criteria were then evaluated over the next seven days: […]\na. morbidity (4th-6th day) b. mortality (4th-7th day) c. incidence of bloody droppings (4th-6th day)"}, "[4]": {"experiment": "Weight gain and feed utilization in chicks, 12 days (Example 14)", "type": "in vivo, chicken", "settings": ".0066% in feed; for Gain/Feed Data / Gains/gram Data: 12 days; for Gain/Feed Index Relative to #1 / Gains Index Relative to #1: #1 = unmedicated; for Gain/Feed Index Relative to #2 / Gains Index Relative to #2: #2 = zinc bacitracin", "procedure": "as §3\nAll of the bacitracin-metal-polyether antibiotic complexes tested produced statistically significant increases in gains compared to the unmedicated basal ration.\nThe test involving test compounds 1 and 3-14 consisted of 5 replicates of 7 chicks and those involving test compound 2 consisted of 6 replicates of 7 chicks. The tests were continued for 12 days, after which individual weight gains and feed conusumption were recorded and analyzed."}, "buffered rumen fluid": {"test_system": "buffered rumen fluid", "experiment": "Rumen screen, in vitro ruminal volatile fatty acid ratio (Examples 15, 16)", "type": "cell-based, steer", "settings": "Neg. Control 1.39", "procedure": "Rumen fluid was removed from a fistulated steer and strained through a cheesecloth. An equal amount of pH 7 buffer was added to strained rumen fluid. After layering occurred, the lower layer was saved and again diluted with equal amount of buffer. Ten ml. portions of buffered rumen fluid were added to fermentation vessels containing 500 mg. fresh finely ground cattle ration, 1 mg cellubiose and a test compound listed in Table 1 below at the indicated concentration. The fermentation vesels were outfitted with one-way gas valves, placed in an incubator and shaken for 24 hours at 38° C. Fermentation was stopped by addition of 1 ml mercuric chloride. The liquid was decanted and analyzed for volatile fatty acids by gas chromatography. Test results are summarized in Table 1, wherein Bac=bacitracin.\nThe procedures of Example 15 were repeated in all essential details with the test compounds and concentrations listed in Table 1 below, as are the results of the test."}},
  "data": [
    {"substance": "Bacitracin-Sodium-Lysocellin Complex [Example 5]", "values": [
      {"measurement": "Cecal Bleeding", "setting": "Eimeria tenella [1]; 14 g/ton Lasalocid (Approx.)", "result": "Severe"},
      {"measurement": "Gain/Bird Days 0-3", "setting": "Eimeria tenella [1]; 14 g/ton Lasalocid (Approx.)", "result": 59.9},
      {"measurement": "Gain/Bird Days 4-10", "setting": "Eimeria tenella [1]; 14 g/ton Lasalocid (Approx.)", "result": 147.7},
      {"measurement": "anticoccidial activity (in words)", "setting": "Eimeria tenella [1]; 36 (0.30 of 120) grams per ton", "result": "fair anticoccidial activity"},
      {"measurement": "Cecal Bleeding", "setting": "Eimeria tenella [1]; 36 g/ton Lasalocid (Approx.)", "result": "Moderate"},
      {"measurement": "Gain/Bird Days 0-3", "setting": "Eimeria tenella [1]; 36 g/ton Lasalocid (Approx.)", "result": 58.6},
      {"measurement": "Gain/Bird Days 4-10", "setting": "Eimeria tenella [1]; 36 g/ton Lasalocid (Approx.)", "result": 169.4},
      {"measurement": "Incidence of Bloody Droppings", "setting": "Eimeria tenella [1]; 80 g/ton in feed", "result": "Severe"},
      {"measurement": "Morbidity", "setting": "Eimeria tenella [1]; 80 g/ton in feed", "result": "11/15"},
      {"measurement": "Mortality", "setting": "Eimeria tenella [1]; 80 g/ton in feed", "result": "0/15"},
      {"measurement": "F/G Day 0-3", "setting": "Eimeria tenella [1]; 80 g/ton in feed", "result": 1.68},
      {"measurement": "Gain/Bird Grams Day 0-3", "setting": "Eimeria tenella [1]; 80 g/ton in feed", "result": 59.9, "unit": "Grams"},
      {"measurement": "F/G Day 4-10", "setting": "Eimeria tenella [1]; 80 g/ton in feed", "result": 2.12},
      {"measurement": "Gain/Bird Grams Day 4-10", "setting": "Eimeria tenella [1]; 80 g/ton in feed", "result": 147.7, "unit": "Grams"},
      {"measurement": "Cecal bleeding associated with E. tenella infections", "setting": "Eimeria tenella [1]; 80 gram per ton", "result": "severe"},
      {"measurement": "Incidence of Bloody Droppings", "setting": "Eimeria tenella [1]; 120 g/ton in feed", "result": "Moderate"},
      {"measurement": "Morbidity", "setting": "Eimeria tenella [1]; 120 g/ton in feed", "result": "8/15"},
      {"measurement": "Mortality", "setting": "Eimeria tenella [1]; 120 g/ton in feed", "result": "0/15"},
      {"measurement": "F/G Day 0-3", "setting": "Eimeria tenella [1]; 120 g/ton in feed", "result": 1.65},
      {"measurement": "Gain/Bird Grams Day 0-3", "setting": "Eimeria tenella [1]; 120 g/ton in feed", "result": 58.6, "unit": "Grams"},
      {"measurement": "F/G Day 4-10", "setting": "Eimeria tenella [1]; 120 g/ton in feed", "result": 1.83},
      {"measurement": "Gain/Bird Grams Day 4-10", "setting": "Eimeria tenella [1]; 120 g/ton in feed", "result": 169.7, "unit": "Grams"},
      {"measurement": "anticoccidial activity (in words)", "setting": "Eimeria tenella [1]; 120 grams per ton", "result": "good anticoccidial activity"},
      {"measurement": "Average Gain", "setting": "[2]", "result": 214, "unit": "g"},
      {"measurement": "Gain/Feed Ratio", "setting": "[2]", "result": 63.1},
      {"measurement": "Average Weight", "setting": "[2]; Table 4", "result": 274.8},
      {"measurement": "Gain/Feed", "setting": "[2]; Table 4", "result": 63.1},
      {"measurement": "Average Gain Index", "setting": "[2]", "result": 104.2},
      {"measurement": "Gain/Feed Ratio Index", "setting": "[2]", "result": 99.0},
      {"measurement": "Morbidity", "setting": "Eimeria tenella [3]; 80 g/ton in feed, 4th-6th day", "result": "4/15"},
      {"measurement": "Mortality", "setting": "Eimeria tenella [3]; 80 g/ton in feed", "result": "0/15"},
      {"measurement": "Gain, Grams Day 0-3", "setting": "Eimeria tenella [3]; 80 g/ton in feed", "result": 56.1, "unit": "Grams"},
      {"measurement": "Gain, Grams Day 4-10", "setting": "Eimeria tenella [3]; 80 g/ton in feed", "result": 219.9, "unit": "Grams"},
      {"measurement": "F/G Day 0-3", "setting": "Eimeria tenella [3]; 80 g/ton in feed", "result": 1.70},
      {"measurement": "F/G Day 4-10", "setting": "Eimeria tenella [3]; 80 g/ton in feed", "result": 1.62},
      {"measurement": "Incidence of Bloody Droppings", "setting": "Eimeria tenella [3]; 120 g/ton in feed, 4th-6th day", "result": "Moderate"},
      {"measurement": "Morbidity", "setting": "Eimeria tenella [3]; 120 g/ton in feed, 4th-6th day", "result": "1/15"},
      {"measurement": "Mortality", "setting": "Eimeria tenella [3]; 120 g/ton in feed", "result": "1/15"},
      {"measurement": "Gain, Grams Day 0-3", "setting": "Eimeria tenella [3]; 120 g/ton in feed", "result": 58.8, "unit": "Grams"},
      {"measurement": "Gain, Grams Day 4-10", "setting": "Eimeria tenella [3]; 120 g/ton in feed", "result": 228.3, "unit": "Grams"},
      {"measurement": "F/G Day 0-3", "setting": "Eimeria tenella [3]; 120 g/ton in feed", "result": 1.72},
      {"measurement": "F/G Day 4-10", "setting": "Eimeria tenella [3]; 120 g/ton in feed", "result": 1.62},
      {"measurement": "Gain/Feed Data", "setting": "[4]", "result": ".595"},
      {"measurement": "Gains/gram Data", "setting": "[4]", "result": 212.4, "unit": "gram"},
      {"measurement": "Gain/Feed Index Relative to #1", "setting": "[4]", "result": 105.7},
      {"measurement": "Gains Index Relative to #1", "setting": "[4]", "result": 114.8},
      {"measurement": "Gain/Feed Index Relative to #2", "setting": "[4]", "result": 99.8},
      {"measurement": "Gains Index Relative to #2", "setting": "[4]", "result": 101.3}
    ]},
    {"substance": "Bacitracin-Zinc-Lysocellin Complex [Example 6]", "values": [
      {"measurement": "Average Gain", "setting": "[2]", "result": 219, "unit": "g"},
      {"measurement": "Gain/Feed Ratio", "setting": "[2]", "result": 66.7},
      {"measurement": "Average Weight", "setting": "[2]; Table 4", "result": 279.4},
      {"measurement": "Gain/Feed", "setting": "[2]; Table 4", "result": 66.7},
      {"measurement": "Average Gain Index", "setting": "[2]", "result": 106.6},
      {"measurement": "Gain/Feed Ratio Index", "setting": "[2]", "result": 104.7},
      {"measurement": "improvement in feed utilization efficiency vs unmedicated controls", "setting": "[2]; statistical comparison, Table 4", "result": "significant imporvement"},
      {"measurement": "A/P Ratio", "setting": "buffered rumen fluid; Example 16, 10 ppm", "result": 1.14},
      {"measurement": "Gain/Feed Data", "setting": "[4]", "result": ".609"},
      {"measurement": "Gains/gram Data", "setting": "[4]", "result": 213.8, "unit": "gram"},
      {"measurement": "Gain/Feed Index Relative to #1", "setting": "[4]", "result": 108.2},
      {"measurement": "Gains Index Relative to #1", "setting": "[4]", "result": 115.5},
      {"measurement": "Gain/Feed Index Relative to #2", "setting": "[4]", "result": 102.2},
      {"measurement": "Gains Index Relative to #2", "setting": "[4]", "result": 102.0}
    ]},
    {"substance": "sodium lysocellin [reference compound]", "values": [
      {"measurement": "A/P Ratio", "setting": "buffered rumen fluid; Example 15, 5 ppm, 24 hours at 38° C.", "result": 1.07},
      {"measurement": "A/P Ratio", "setting": "buffered rumen fluid; Example 16, 5 ppm", "result": 1.07}
    ]}
  ]
}
